From PubChem BioAssay (NCI)
Several values for one entry are separate records, joined by “and”; a condition that tells them apart may be missing. Identical values can stand only once.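 Interpolation was linear, between the two tested concentrations surrounding the appropriate level; five concentrations were tested over 48 hours in 96-well plates. GI50: concentration for 50% inhibition of growth. TGI marks complete inhibition of growth.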

Key:
Test in all cases: NCI anticancer screen, dose series, 48 h
CCRF-CEM leukemia = test system: CCRF-CEM leukemia
HS 578T breast = test system: HS 578T breast
KM12 colon = test system: KM12 colon
SF-268 CNS = test system: SF-268 CNS
SK-MEL-28 melanoma = test system: SK-MEL-28 melanoma
SK-OV-3 ovarian = test system: SK-OV-3 ovarian
SN12C renal = test system: SN12C renal
SNB-75 CNS = test system: SNB-75 CNS
UO-31 renal = test system: UO-31 renal
NCI-H522 lung = test system: NCI-H522 lung

Structure (SMILES)	TGI (CCRF-CEM leukemia) [µM]	TGI (HS 578T breast) [µM]	TGI (KM12 colon)	TGI (SF-268 CNS)	TGI (SK-MEL-28 melanoma)	TGI (SK-OV-3 ovarian)	TGI (SN12C renal)	TGI (SNB-75 CNS)	TGI (UO-31 renal)	TGI (NCI-H522 lung)	GI50 (CCRF-CEM leukemia)	GI50 (NCI-H522 lung) [µM]	GI50 (SF-268 CNS) [µM]	GI50 (SK-OV-3 ovarian) [µM]	GI50 (SN12C renal) [µM]	GI50 (SNB-75 CNS) [µM]	GI50 (UO-31 renal)
CCCCCCCCCCCCc1ccc(S(=O)(=O)O)cc1.[Cu+2]	> 100	> 100	> 100 µM	> 100 µM	> 100 µM	22.8 µM	> 100 µM	> 100 µM	> 100 µM	–	–	–	–	–	–	–	–
COc1ccccc1C#C/C=C\C#Cc1ccccc1C#N	> 100	65.4	55.6 µM	> 100 µM	> 100 µM	> 100 µM	> 100 µM	> 100 µM	67.2 µM	25.7 µM	–	–	–	–	–	–	–
CC(=O)OC(C(=O)O)C(OC(C)=O)C(OC(C)=O)C(OC(C)=O)C(=O)O (configuration not stated)	> 100	> 100	> 100 µM	> 100 µM	> 100 µM	> 100 µM	> 100 µM	–	> 100 µM	> 100 µM	–	–	–	–	–	–	–
O=C(CSCC(=O)N/N=C\c1ccc(F)cc1F)N/N=C\c1ccc(F)cc1F	> 100	> 100	> 100 µM	> 100 µM	> 100 µM	> 100 µM	> 100 µM	> 100 µM	> 100 µM	> 100 µM	–	–	–	–	–	–	–
CC(C)CNC1=NCC(C)S1 (configuration not stated)	> 100	> 100	> 100 µM	> 100 µM	> 100 µM	> 100 µM	–	> 100 µM	> 100 µM	> 100 µM	–	–	–	–	–	–	–
COC(=O)c1c(O)ccc2c1c1c(n2CCc2ccc(OC)c(OC)c2)C(=O)c2ccccc2C1=O	45.2	37.2	25.6 µM	41 µM	24.8 µM	38.6 µM	50.9 µM	–	34.6 µM	14 µM	–	–	–	–	–	–	–
CC[C@@]1(O)CC(OC2CC(N3CCOCC3)C(O)C(C)O2)c2c(O)c3c(c(O)c2[C@H]1O)C(=O)c1cccc(O)c1C3=O (some centres not stated)	–	1.61	3.59 µM and 1.68 µM	3.27 µM and 2.1 µM	1.8 µM and 1.94 µM	1.07 µM and 1.67 µM	2.17 µM and 9.19 µM	0.93 µM and 0.399 µM	1.57 µM and 3.28 µM	0.906 µM and 0.407 µM	0.000479 µM and < 0.0102 µM	0.055	0.091	0.0963	0.0465	0.0452	0.437 µM and 0.828 µM
O=C(O)c1cc2ccccc2c(N=Nc2ccc(S(=O)(=O)Nc3ccccn3)cc2)c1O	> 100	> 100	> 100 µM	> 100 µM	> 100 µM	> 100 µM	> 100 µM	> 100 µM	> 100 µM	> 100 µM	–	–	–	–	–	–	–
